According to patent US8075900B2, “Melanoma associated peptide analogues and vaccines against melanoma” (The United States of America, as represented by the …, priority 1996, dated 2011):
Several values for one entry are separate records, joined by “and”; a condition that tells them apart may be missing. Equal entries are not always repeated. No end group written: not given here.

Columns and labels:
[1] = target: T1, HLA-A*0201 (Homo sapiens, UniProt P04439, D140Y/D185E/D98H/E176V/E277Q/G131W/G231S/I119V/I121R/I166T/I218V/L300P/L318F/N151K/N90K/P208A/P217A/Q86G/Q94H/R138H/R169H/T345S); experiment: Competition based HLA-A*0201 peptide-binding assay on JY cells; conditions: competition with Fluorescein labeled reference peptide at 4° C., mild acid treated HLA-A*0201+ B-LCL; read-out: Affinity IC50
T1 construct: Peptide-induced HLA-A*0201 upregulation on T2 cells was performed as described previously; endogenous in cells; host or cells: T2 cells (processing-defective, HLA-A*0201+)

[2] = system: T2 target cells, Melan-A/MART-1 27-35-reactive TIL 1235 lymphocytes; experiment: Chromium-release assay, target cell sensitization for lysis by TIL 1235; type: cell-based, human; conditions: E:T 20:1, T2 target cells preincubated 90 min with 1 μM peptide, 5 hours
[3] = system: T2 target cells, gp100-reactive TIL 1200 lymphocytes; experiment: Chromium-release assay, target cell sensitization for lysis by TIL 1200; type: cell-based, human; conditions: E:T 20:1, T2 target cells preincubated 90 min with 1 μM peptide, 5 hours
Description: Chromium release assays were performed as described previously (Bakker et al., 1994, J. Exp. Med. 179:1005). […] Various amounts of effector cells were then added to the target cells in triplicate wells of U bottomed microliter plates (Costar, Badhoevedorp, The Netherlands) in a final volume of […]. […] After 5 h of incubation, part of the supernatant was harvested and its radioactive content was measured. The mean percentage specific lysis of triplicate wells was calculated using the formula: % specific lysis=((experimental release−spontaneous release)÷(maximal release−spontaneous release))×100.

[4] = target: T1, HLA-A*0201; experiment: Peptide-induced HLA-A*0201 upregulation/stabilization on T2 cells; type: binding

Sequence	target cell lysis by TIL 1235 (% specific lysis) [2]	target cell lysis by TIL 1200 (% specific lysis) [3] [%]	further results
KIWGQYWQV			IC50 [1]: 600 nM
AAAIGILTV [alanine-substituted Melan-A/MART-1 27-35 analogue]	13%		
KTWGQYAQV		−2	
AAGAGILTV [alanine-substituted Melan-A/MART-1 27-35 analogue]	0%		
KMWGQYWQV		57	
ATWGQYWQV		75	
KTWGQYWAV			IC50 [1]: 500 nM
AAGIGILAV [alanine-substituted Melan-A/MART-1 27-35 analogue]	11%		
KTWGQAWQV		7	
KTAGQYWQV		58	
KTWAQYWQV		63	
AAGIAILTV [alanine-substituted Melan-A/MART-1 27-35 analogue]	4%		
KAWGQYWQV		64	
AAGIGILTA [alanine-substituted Melan-A/MART-1 27-35 analogue]	26%		HLA-A*0201 stabilization (Fluorescence Index) ([4]; 25 μM peptide): 1.03; HLA-A*0201 stabilization (Fluorescence Index) ([4]; 50 μM peptide): 1.00
YLEPGPVTA [reference compound]	−3% and −1%	3	
AMGIGILTV [Melan-A/MART-1 27-35 N-terminal anchor-replacement analogue]	6%		
AVGIGILTV [Melan-A/MART-1 27-35 N-terminal anchor-replacement analogue]	27%		
GAGIGILTV [glycine-substituted Melan-A/MART-1 27-35 analogue]	52%		
AGGIGILTV [glycine-substituted Melan-A/MART-1 27-35 analogue]	6%		
KLWGQYWQV			IC50 [1]: 400 nM
KTWGQYWQA		76	
ALGIGILTV [Melan-A/MART-1 27-35 N-terminal anchor-replacement analogue]	16%		
AIGIGILTV [Melan-A/MART-1 27-35 N-terminal anchor-replacement analogue]	27%		HLA-A*0201 stabilization (Fluorescence Index) ([4]; 25 μM peptide): 1.29; HLA-A*0201 stabilization (Fluorescence Index) ([4]; 50 μM peptide): 1.58
KTWGAYWQV		9	
AAGIGALTV [alanine-substituted Melan-A/MART-1 27-35 analogue]	2%		
KVWGQYWQV			IC50 [1]: 800 nM
AAGIGIATV [alanine-substituted Melan-A/MART-1 27-35 analogue]	6%		
